The text below walks through data of BindingDB's records for doi:10.1021/jm011081s (The Institute of Cancer Research, 2002).

For orientation: IC50 means the concentration that gives 50% inhibition. A low value points to greater potency in that assay.

This assay is described as follows: Growth inhibitory activity against mouse lymphoblastoid L1210TS cell line was determined as inhibition of thymidylate synthase.

As to `C#CCN(Cc1cc2c(=O)n(C)c(CN(CC)CC)nc2cc1Cl)c1ccc(C(=O)NCc2cccnc2)cc1` [4-[(7-Chloro-2-diethylaminomethyl-3-methyl-4-oxo-3,4-dihydro-quinazolin-6-ylmethyl)-prop-2-ynyl-amino]-N-pyridin-3-ylmethyl-benzamide], the concentration for half-maximal inhibition (IC50) is over 50 µM.
